Source: patent publication US11485742B2, “2-azaspiro[3.4]octane derivatives as M4 agonists” (NOVARTIS AG, priority 2019, dated 2022)

Molecular target: T1, Cloned human M1 receptor (CHRM1) (Homo sapiens, UniProt P11229)
T1 construct: expressed in transfected cells; host or cells: HEK293
T1 sequence (P11229 1-460): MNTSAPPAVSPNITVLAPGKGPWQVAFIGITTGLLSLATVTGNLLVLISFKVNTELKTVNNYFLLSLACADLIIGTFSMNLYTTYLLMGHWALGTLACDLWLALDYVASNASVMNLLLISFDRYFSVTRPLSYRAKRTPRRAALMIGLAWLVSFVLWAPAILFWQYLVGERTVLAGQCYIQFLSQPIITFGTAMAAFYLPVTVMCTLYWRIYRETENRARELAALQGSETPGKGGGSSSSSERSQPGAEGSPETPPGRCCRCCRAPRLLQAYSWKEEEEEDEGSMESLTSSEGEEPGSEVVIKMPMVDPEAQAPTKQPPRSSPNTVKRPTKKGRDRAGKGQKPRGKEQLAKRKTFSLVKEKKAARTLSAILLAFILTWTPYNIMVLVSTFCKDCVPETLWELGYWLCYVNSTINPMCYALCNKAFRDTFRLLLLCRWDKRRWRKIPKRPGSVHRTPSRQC
Test: CHRM1 Ca++ Flux Assay (HEK293 M1 cells, agonist mode)
Format: cell-based
Conditions: for Emax: Percent Activity (PA), read-out: M1 FDSS PA %; for EC50: geometric mean if tested more than once, read-out: M1 FDSS EC50
Method in brief: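 In agonist mode, compound-induced intracellular Ca++ mobilization was recorded for 3 min by fluorescent imager. The cells were HEK293 stably expressing cloned human CHRM1, in Ca/Mg-free HBSS with 20 mM HEPES. Triplicate 11-point dose-responses were fitted by four-parameter regression and normalized to the carbachol EC100 response.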

SMILES | Emax [%] | EC50 [nM]
COc1ccccc1C1CCN([C@@H]2COC3(C2)CN(c2ncco2)C3)CC1 [Example 4N, (S)-7-(4-(2-methoxyphenyl)piperidin-1-yl)-2-(oxazol-2-yl)-5-oxa-2-azaspiro[3.4]octane] | 64 | 384
Fc1cc(OCC2COC2)c(C2CCN([C@@H]3COC4(C3)CN(c3ncco3)C4)CC2)cc1F [Example 4O, (S)-7-(4-(4,5-difluoro-2-(oxetan-3-ylmethoxy)phenyl)piperidin-1-yl)-2-(oxazol-2-yl)-5-oxa-2-azaspiro[3.4]octane] | 63 | 364
Fc1cc(OCC2(F)COC2)c(C2CCN([C@@H]3COC4(C3)CN(c3ncco3)C4)CC2)cc1F [Example 4P, (S)-7-(4-(4,5-difluoro-2-((3-fluorooxetan-3-yl)methoxy)phenyl)piperidin-1-yl)-2-(oxazol-2-yl)-5-oxa-2-azaspiro[3.4]octane] | 89 | 334
c1ccc(C2CCN([C@@H]3COC4(C3)CN(c3ncco3)C4)CC2)c(-c2cncnc2)c1 [Example 4R, (S)-2-(oxazol-2-yl)-7-(4-(2-(pyrimidin-5-yl)phenyl)piperidin-1-yl)-5-oxa-2-azaspiro[3.4]octane] | 95 | 128
Fc1ccc(C2CCOCC2)c(C2CCN([C@@H]3COC4(C3)CN(c3ncco3)C4)CC2)c1 [Example 4W, (S)-7-(4-(5-fluoro-2-(tetrahydro-2H-pyran-4-yl)phenyl)piperidin-1-yl)-2-(oxazol-2-yl)-5-oxa-2-azaspiro[3.4]octane] | 74 | 1090
COc1ccc(Cl)cc1C1CCN([C@@H]2COC3(C2)CN(c2ncns2)C3)CC1 [Example 5A, (S)-7-(4-(5-chloro-2-methoxyphenyl)piperidin-1-yl)-2-(1,2,4-thiadiazol-5-yl)-5-oxa-2-azaspiro[3.4]octane] | 70 | 630
CC(C)(O)COc1ccc(F)cc1C1CCN([C@@H]2COC3(C2)CN(c2ncns2)C3)CC1 [Example 5C, (S)-1-(2-(1-(2-(1,2,4-thiadiazol-5-yl)-5-oxa-2-azaspiro[3.4]octan-7-yl)piperidin-4-yl)-4-fluorophenoxy)-2-methylpropan-2-ol] | 60 | 1600
COCCOc1ccc(F)cc1C1CCN([C@@H]2COC3(C2)CN(c2ncns2)C3)CC1 [Example 5D, (S)-7-(4-(5-fluoro-2-(2-methoxyethoxy)phenyl)piperidin-1-yl)-2-(1,2,4-thiadiazol-5-yl)-5-oxa-2-azaspiro[3.4]octane] | 60 | 1150
COc1cc(F)ccc1C1CCN([C@@H]2COC3(C2)CN(c2ncns2)C3)CC1 [Example 5E, (S)-7-(4-(4-fluoro-2-methoxyphenyl)piperidin-1-yl)-2-(1,2,4-thiadiazol-5-yl)-5-oxa-2-azaspiro[3.4]octane] | 29 | 2580
Cc1nc(COc2ccccc2C2CCN([C@@H]3COC4(C3)CN(c3nncs3)C4)CC2)no1 [Example 5F, (S)-7-(4-(2-((5-methyl-1,2,4-oxadiazol-3-yl)methoxy)phenyl)piperidin-1-yl)-2-(1,3,4-thiadiazol-2-yl)-5-oxa-2-azaspiro[3.4]octane] | 106 | 11
Fc1ccc(OC2COC2)c(C2CCN([C@@H]3COC4(C3)CN(c3nncs3)C4)CC2)c1 [Example 5G, (S)-7-(4-(5-fluoro-2-(oxetan-3-yloxy)phenyl)piperidin-1-yl)-2-(1,3,4-thiadiazol-2-yl)-5-oxa-2-azaspiro[3.4]octane] | 88 | 311
Fc1ccc(OC2CCOCC2)c(C2CCN([C@@H]3COC4(C3)CN(c3nncs3)C4)CC2)c1 [Example 5J, (S)-7-(4-(5-fluoro-2-((tetrahydro-2H-pyran-4-yl)oxy)phenyl)piperidin-1-yl)-2-(1,3,4-thiadiazol-2-yl)-5-oxa-2-azaspiro[3.4]octane] | 6 | 1200
Fc1ccc(OC[C@@H]2COCCO2)c(C2CCN([C@@H]3COC4(C3)CN(c3nncs3)C4)CC2)c1 [Example 5L, (S)-7-(4-(2-(((S)-1,4-dioxan-2-yl)methoxy)-5-fluorophenyl)piperidin-1-yl)-2-(1,3,4-thiadiazol-2-yl)-5-oxa-2-azaspiro[3.4]octane] | 88 | 370
COC(C)(C)CCOc1ccc(F)cc1C1CCN([C@@H]2COC3(C2)CN(c2nncs2)C3)CC1 [Example 5N, (S)-7-(4-(5-fluoro-2-(3-methoxy-3-methylbutoxy)phenyl)piperidin-1-yl)-2-(1,3,4-thiadiazol-2-yl)-5-oxa-2-azaspiro[3.4]octane] | 68 | 2970

Further molecules by falling EC50, results first:

Emax [%] | EC50 [nM] | SMILES
72 | 1990 | c1ccc(C2CCN([C@@H]3COC4(C3)CN(c3ncco3)C4)CC2)c(C2CCOCC2)c1 [Example 4V, (S)-2-(oxazol-2-yl)-7-(4-(2-(tetrahydro-2H-pyran-4-yl)phenyl)piperidin-1-yl)-5-oxa-2-azaspiro[3.4]octane]
22 | 1570 | COc1ccccc1C1CCN([C@@H]2COC3(C2)CN(c2ncns2)C3)CC1 [Example 5B, (S)-7-(4-(2-methoxyphenyl)piperidin-1-yl)-2-(1,2,4-thiadiazol-5-yl)-5-oxa-2-azaspiro[3.4]octane]
66 | 786 | Fc1cc(O[C@@H]2CCOC2)c(C2CCN([C@@H]3COC4(C3)CN(c3nncs3)C4)CC2)cc1F [Example 5M, (S)-7-(4-(4,5-difluoro-2-(((R)-tetrahydrofuran-3-yl)oxy)phenyl)piperidin-1-yl)-2-(1,3,4-thiadiazol-2-yl)-5-oxa-2-azaspiro[3.4]octane]
69 | 775 | Fc1ccc(OC[C@@H]2CCOC2)c(C2CCN([C@@H]3COC4(C3)CN(c3nncs3)C4)CC2)c1 [Example 5I, (S)-7-(4-(5-fluoro-2-(((R)-tetrahydrofuran-3-yl)methoxy)phenyl)piperidin-1-yl)-2-(1,3,4-thiadiazol-2-yl)-5-oxa-2-azaspiro[3.4]octane]
89 | 624 | Fc1ccc(C2CCN([C@@H]3COC4(C3)CN(c3ncco3)C4)CC2)c(OC2COC2)c1 [Example 4S, (S)-7-(4-(4-fluoro-2-(oxetan-3-yloxy)phenyl)piperidin-1-yl)-2-(oxazol-2-yl)-5-oxa-2-azaspiro[3.4]octane]
96 | 434 | Fc1ccc(OC[C@H]2COCCO2)c(C2CCN([C@@H]3COC4(C3)CN(c3nncs3)C4)CC2)c1 [Example 5K, (S)-7-(4-(2-(((R)-1,4-dioxan-2-yl)methoxy)-5-fluorophenyl)piperidin-1-yl)-2-(1,3,4-thiadiazol-2-yl)-5-oxa-2-azaspiro[3.4]octane]
67 | 432 | Fc1ccc(O[C@@H]2CCOC2)c(C2CCN([C@@H]3COC4(C3)CN(c3nncs3)C4)CC2)c1 [Example 5H, (S)-7-(4-(5-fluoro-2-(((R)-tetrahydrofuran-3-yl)oxy)phenyl)piperidin-1-yl)-2-(1,3,4-thiadiazol-2-yl)-5-oxa-2-azaspiro[3.4]octane]
71 | 294 | Fc1cc(OC2COC2)c(C2CCN([C@@H]3COC4(C3)CN(c3ncco3)C4)CC2)cc1F [Example 4Q, (S)-7-(4-(4,5-difluoro-2-(oxetan-3-yloxy)phenyl)piperidin-1-yl)-2-(oxazol-2-yl)-5-oxa-2-azaspiro[3.4]octane]
